# Experiment: Residual parent lipid levels in the liver of mice (hEPO mRNA LNP)
# Assay type: in vivo
# Conditions: CD-1 mice
row,SMILES,Parent Lipid Remaining at 24 h
1,CCCCCCCCC(CCCCCCCC)OC(=O)CCCCCCCN(CCO)CCCCCCCC(=O)OCCC1CCC(CC)CC1 (stereo not shown) [Compound 35],<0.1 nmol/g liver tissue
2,CCCCCCCCC(CCCCCCCC)OC(=O)CCCCCCCN(CCCCCCCC(=O)OCCC1CCC(CCC)CC1)CCCNc1c(NC)c(=O)c1=O (stereo not shown) [Compound 39],4 ± 1 nmol/g liver tissue
3,CCCCCC(CCCCC)CCOC(=O)CCCCCCCN(CCO)CCCCCCCC(=O)OCCC(CCCCC)CCCCC [Compound 25],0.1 ± 0.04 nmol/g liver tissue
4,CCCCCCCCC(CCCCCCCC)OC(=O)CCCCCCCN(CCCCCCCC(=O)OCC(CCCCCCC)C(C)C)CCCNc1c(NC)c(=O)c1=O (stereo not shown) [Compound 19],73 ± 6 nmol/g liver tissue
5,CCCCCCC(CCCCCC)CCOC(=O)CCCCCCCN(CCO)CCCCCCCC(=O)OCCC(CCCCCC)CCCCCC [Compound 23],24 ± 3 nmol/g liver tissue
6,CCCCCC(CCCCC)CCCOC(=O)CCCCCCCN(CCO)CCCCCCCC(=O)OCCCC(CCCCC)CCCCC [Compound 33],0.5 ± 0.3 nmol/g liver tissue
7,CCCCCCCCC(CCCCCCCC)OC(=O)CCCCCCCN(CCO)CCCCCCCC(=O)OCCCC(CCCCC)CCCCC [Compound 31],2 ± 0.6 nmol/g liver tissue
8,CCCCCC(CCCCC)CCCOC(=O)CCCCCCCN(CCCCCCCC(=O)OCCCC(CCCCC)CCCCC)CCCNc1c(NC)c(=O)c1=O [Compound 34],12 ± 2 nmol/g liver tissue
9,CCCCCCCCC(CCCCCCCC)OC(=O)CCCCCCCN(CCCCCCCC(=O)OCCC1CCC(CC)C1)CCCNc1c(NC)c(=O)c1=O (stereo not shown) [Compound 40],3 ± 0.3 nmol/g liver tissue
10,CCCCCCCCC(CCCCCCCC)OC(=O)CCCCCCCN(CCO)CCCCCCCC(=O)OCCC(CCCCC)CCCCC [Compound 24],3 ± 1 nmol/g liver tissue
11,CCCCCCCCC(CCCCCCCC)COC(=O)CCCCCN(CCCCCCCC(=O)OC(CC)CCCCCCCC)CCCNc1c(NC)c(=O)c1=O (stereo not shown) [Compound 14],56 ± 6 nmol/g liver tissue
12,"CCCCCCCCC(CCCCCCCC)OC(=O)CCCCCCCN(CCO)CCCCCCCC(=O)OCCC(CCCC)CCCC [Compound 22, 3-Butylheptyl 8-((8-(heptadecan-9-yloxy)-8-oxooctyl)(2-hydroxyethyl)amino)octanoate]",<0.1 nmol/g liver tissue
13,CCCCCCC(CCCCCC)CCOC(=O)CCCCCCCN(CCCCCCCC(=O)OCCC(CCCCCC)CCCCCC)CCCNc1c(NC)c(=O)c1=O [Compound 28],58 ± 7 nmol/g liver tissue
14,CCCCCCCCC(CCCCCCCC)OC(=O)CCCCCCCN(CCO)CCCCCCCC(=O)OCCC(CCCC)CCCCCC (stereo not shown) [Compound 7],0.3 ± 0.2 nmol/g liver tissue
15,CCCCCCCCC(CCCCCCCC)OC(=O)CCCCCCCN(CCCCCCCC(=O)OCC(CCCCC)CCCCCCC)CCCNc1c(NC)c(=O)c1=O (stereo not shown) [Compound 16],77 ± 3 nmol/g liver tissue
16,CCCCCCCCC(CCCCCCCC)OC(=O)CCCCCCCN(CCO)CCCCCCCC(=O)OCCC1CCC(CC)C1 (stereo not shown) [Compound 37],<0.1 nmol/g liver tissue

# Second part, the molecule after the results:
row,Parent Lipid Remaining at 24 h,SMILES
1,4 ± 0.6 nmol/g liver tissue,CCCCCC(CCCCC)CCOC(=O)CCCCCCCN(CCCCCCCC(=O)OCCC(CCC)CCC)CCCNc1c(NC)c(=O)c1=O [Compound 51]
2,69 ± 17 nmol/g liver tissue,CCCCCCCCC(CCCCCCCC)OC(=O)CCCCCCCN(CCCCCCCC(=O)OCCCC(CCCCC)CCCCC)CCCNc1c(NC)c(=O)c1=O [Compound 32]
3,141 ± 15 nmol/g liver tissue,CCCCCCCCC(CCCCCCCC)OC(=O)CCCCCCCN(CCCCCCCC(=O)OCCC(CCCCCC)CCCCCC)CCCNc1c(NC)c(=O)c1=O [Compound 26]
4,27 ± 4 nmol/g liver tissue,"CCCCCCCCC(CCCCCCCC)OC(=O)CCCCCCCN(CCCCCCCC(=O)OCCC(CCCC)CCCC)CCCNc1c(NC)c(=O)c1=O [Compound 27, 3-Butylheptyl 8-((8-(heptadecan-9-yloxy)-8-oxooctyl)(3-((2-(methylamino)-3,4-dioxocyclobut-1-en-1-yl)amino)propyl)amino)octanoate]"
5,0.1 ± 0.03 nmol/g liver tissue,CCCCC(CCCC)OC(=O)CCCCCCCN(CCCCCCCC(=O)OCCC(CCC)CCC)CCCNc1c(NC)c(=O)c1=O [Compound 66]
6,12 ± 1 nmol/g liver tissue,"CCCCCC(CCCCC)CCOC(=O)CCCCCCCN(CCCCCCCC(=O)OCCC(CCCC)CCCC)CCCNc1c(NC)c(=O)c1=O [Compound 54, 3-Butylheptyl 8-((3-((2-(methylamino)-3,4-dioxocyclobut-1-en-1-yl)amino)propyl)(8-oxo-8-((3-pentyloctyl)oxy)octyl)amino)octanoate]"
7,12 ± 1 nmol/g liver tissue,CCCCCC(CCCCC)CCOC(=O)CCCCCCCN(CCCCCCCC(=O)OC(CCCCC)CCCCC)CCCNc1c(NC)c(=O)c1=O [Compound 57]
8,51 ± 4 nmol/g liver tissue,CCCCCCCCC(CCCCCC)COC(=O)CCCCCN(CCCCCCCC(=O)OC(CC)CCCCCCCC)CCCNc1c(NC)c(=O)c1=O (stereo not shown) [Compound 15]
9,4.9 ± 0.9 nmol/g liver tissue,CCCCCCC(CCCCCC)OC(=O)CCCCCCCN(CCCCCCCC(=O)OCCC(CCC)CCC)CCCNc1c(NC)c(=O)c1=O [Compound 64]
10,8.5 ± 0.6 nmol/g liver tissue,CCCCCCC(CCCCCC)OC(=O)CCCCCCCN(CCCCCCCC(=O)OCCC(CCCC)CCCC)CCCNc1c(NC)c(=O)c1=O [Compound 60]
11,<1 nmol/g liver tissue,CCCCC(CCCC)CCOC(=O)CCCCCCCN(CCCCCCCC(=O)OCCC(CCC)CCC)CCCNc1c(NC)c(=O)c1=O [Compound 52]
12,5.1 ± 0.8 nmol/g liver tissue,CCCCCC(CCCCC)OC(=O)CCCCCCCN(CCCCCCCC(=O)OCCC(CCCC)CCCC)CCCNc1c(NC)c(=O)c1=O [Compound 61]
13,25 ± 4 nmol/g liver tissue,"CCCCCC(CCCCC)CCOC(=O)CCCCCCCN(CCCCCCCC(=O)OCCC(CCCCC)CCCCC)CCCNc1c(NC)c(=O)c1=O [Compound 30, Bis(3-pentyloctyl) 8,8′-((3-((2-(methylamino)-3,4-dioxocyclobut-1-en-1-yl)amino)propyl)azanediyl)dioctanoate]"
14,8.9 ± 2.8 nmol/g liver tissue,CCCCCCCC(CCCCCCC)OC(=O)CCCCCCCN(CCCCCCCC(=O)OCCC(CCC)CCC)CCCNc1c(NC)c(=O)c1=O [Compound 63]
15,66 ± 16 nmol/g liver tissue,CCCCCCCCC(CCCCCCCC)OC(=O)CCCCCCCN(CCCCCCCC(=O)OCCC(CCCCC)CCCCC)CCCNc1c(NC)c(=O)c1=O [Compound 29]
16,0.9 ± 0.3 nmol/g liver tissue,CCCCCC(CCCCC)OC(=O)CCCCCCCN(CCCCCCCC(=O)OCCC(CCC)CCC)CCCNc1c(NC)c(=O)c1=O [Compound 65]
17,35 ± 5 nmol/g liver tissue,CCCCCCCCC(CCCCCCCC)OC(=O)CCCCCCCN(CCCCCCCC(=O)OCCC(CCCCCC)C(C)C)CCCNc1c(NC)c(=O)c1=O (stereo not shown) [Compound 17]
18,15 ± 2 nmol/g liver tissue,CCCCCC(CCCCC)CCOC(=O)CCCCCCCN(CCCCCCCC(=O)OC(CCCC)CCCC)CCCNc1c(NC)c(=O)c1=O [Compound 58]
19,65 ± 5 nmol/g liver tissue,CCCCCCCCC(CCCCCCCC)OC(=O)CCCCCCCN(CCCCCCCC(=O)OCCC(CCCC)CCCCCC)CCCNc1c(NC)c(=O)c1=O (stereo not shown) [Compound 20]
20,<1 nmol/g liver tissue,CCCC(CCC)CCOC(=O)CCCCCCCN(CCCCCCCC(=O)OCCC(CCC)CCC)CCCNc1c(NC)c(=O)c1=O [Compound 53]
21,1.8 ± 0.6 nmol/g liver tissue,CCCCC(CCCC)CCOC(=O)CCCCCCCN(CCCCCCCC(=O)OC(CCCC)CCCC)CCCNc1c(NC)c(=O)c1=O [Compound 62]

# — US20240207374A1, “LIPID NANOPARTICLES CONTAINING POLYNUCLEOTIDES ENCODING GLUCOSE-6-PHOSPHATASE AND USES THEREOF” (ModernaTX, Inc., priority 2021, published 2024)
